Test results as given in patent publication US12612410B2 (CHILDREN'S HOSPITAL MEDICAL CENTER, priority 2020, dated 2026).

Experiments:
[1] = tested on: MOLM14 F691L cells; assay: MOLM14 F691L cell viability assay (Cell Titer Glo); format: cell-based
Procedure: Both cell lines have activated FLT3 receptors, each of which carry additional resistance mutations in the kinase domain (D835Y and F691L, respectively).
MOLM14 D835Y and MOLM14 F691L cells were grown in RPMI-1640 media supplemented with 20% fetal bovine serum (FBS). For viability/cytotoxicity assessments, cells were seeded into 1536-well white polystyrene tissue culture-treated Greiner plates using a Multidrop Combi dispenser (ThermoFisher), in final volume 5 μL of growth media per well, at a density of 1000 cells per well. After cell addition, 23 nL of test compound were transferred into individual wells (22 doses tested for each test compound, with a 1:2 dilution series starting at 10 μM) via a 1536 pin-tool. Bortezomib (final concentration 2.3 μM) was used as a positive control for cell cytotoxicity. Plates were incubated for 48 hours at standard incubator conditions covered by a stainless steel gasketed lid to prevent evaporation. 48 hours post compound addition, 3 μL of Cell Titer Glo (Promega) were added to each well and plates were incubated at room temperature for 15 minutes with the stainless-steel lid in place. Luminescence readings were taken using a Viewlux imager (PerkinElmer) with a 2 second exposure time per plate.

[2] = tested on: MOLM14 D835Y cells; assay: MOLM14 D835Y cell viability assay (Cell Titer Glo); format: cell-based
In short: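 MOLM14 cells carrying FLT3 D835Y or F691L were seeded at 1000 cells/well in RPMI-1640 with 20% FBS and dosed at 22 concentrations, 1:2 dilutions from 10 μM. Viability after 48 h by Cell Titer Glo luminescence; 2.3 μM bortezomib as cytotoxic control.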

[3] = target: T1, IRAK1 (Homo sapiens, UniProt P51617); assay: RBC HotSpot Kinase Assay, IRAK1; format: biochemical; settings: isolated kinase, 33P-ATP
T1 construct: purchased Reaction Biology (RBC), HotSpot kinase assay
T1 sequence (P51617 whole entry): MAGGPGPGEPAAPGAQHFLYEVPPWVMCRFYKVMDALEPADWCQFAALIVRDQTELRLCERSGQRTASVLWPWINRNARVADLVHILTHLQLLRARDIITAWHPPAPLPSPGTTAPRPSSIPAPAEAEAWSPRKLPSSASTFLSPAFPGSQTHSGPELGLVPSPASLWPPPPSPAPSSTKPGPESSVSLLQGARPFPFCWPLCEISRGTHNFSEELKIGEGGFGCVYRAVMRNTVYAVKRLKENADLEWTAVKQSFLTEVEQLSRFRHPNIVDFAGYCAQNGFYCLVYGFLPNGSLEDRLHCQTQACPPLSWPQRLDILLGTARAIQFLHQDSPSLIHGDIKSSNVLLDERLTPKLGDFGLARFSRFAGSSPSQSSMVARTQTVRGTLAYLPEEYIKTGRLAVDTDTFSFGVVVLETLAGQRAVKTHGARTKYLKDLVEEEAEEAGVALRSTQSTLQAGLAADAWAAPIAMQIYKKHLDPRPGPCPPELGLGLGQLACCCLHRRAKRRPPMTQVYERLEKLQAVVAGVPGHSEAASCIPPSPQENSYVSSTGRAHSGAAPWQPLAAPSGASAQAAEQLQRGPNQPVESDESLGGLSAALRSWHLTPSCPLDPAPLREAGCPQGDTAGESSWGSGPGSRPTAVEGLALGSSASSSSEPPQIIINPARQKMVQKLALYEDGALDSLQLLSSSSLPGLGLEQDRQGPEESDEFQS
In short: (§1)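 Isolated recombinant kinase (possibly truncated or catalytic-domain form) was preincubated with compound for 20 min at room temp in 20 mM Hepes pH 7.5, 10 mM MgCl2, 1 mM EGTA, 0.01% Brij35, 1% DMSO with substrate; 33P-ATP started a 2 h room-temperature reaction, read by P81 filter binding.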

[4] = target: T2, IRAK4 (Homo sapiens, UniProt Q9NWZ3); assay: RBC HotSpot Kinase Assay, IRAK4; format: biochemical; set-up: purchased Reaction Biology (RBC), HotSpot kinase assay; settings: isolated kinase, 33P-ATP
T2 sequence (Q9NWZ3 1-460): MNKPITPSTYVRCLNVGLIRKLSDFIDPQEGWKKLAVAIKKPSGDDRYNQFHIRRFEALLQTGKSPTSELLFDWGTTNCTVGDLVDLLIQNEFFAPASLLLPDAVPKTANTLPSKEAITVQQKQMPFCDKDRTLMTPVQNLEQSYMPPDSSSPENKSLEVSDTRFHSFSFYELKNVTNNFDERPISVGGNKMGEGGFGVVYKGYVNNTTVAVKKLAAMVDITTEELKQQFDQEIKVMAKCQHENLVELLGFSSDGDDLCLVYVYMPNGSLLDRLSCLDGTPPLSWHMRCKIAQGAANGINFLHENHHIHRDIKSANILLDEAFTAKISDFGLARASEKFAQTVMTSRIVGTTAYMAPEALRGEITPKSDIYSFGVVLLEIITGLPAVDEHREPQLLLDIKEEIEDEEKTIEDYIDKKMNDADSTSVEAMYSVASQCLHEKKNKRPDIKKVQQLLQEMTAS
In short: as §1

[5] = target: T3, FLT3 (Homo sapiens, UniProt P36888); assay: RBC HotSpot Kinase Assay, FLT3; format: biochemical; set-up: purchased Reaction Biology (RBC), HotSpot kinase assay; settings: isolated kinase, 33P-ATP
T3 sequence (P36888 27-993): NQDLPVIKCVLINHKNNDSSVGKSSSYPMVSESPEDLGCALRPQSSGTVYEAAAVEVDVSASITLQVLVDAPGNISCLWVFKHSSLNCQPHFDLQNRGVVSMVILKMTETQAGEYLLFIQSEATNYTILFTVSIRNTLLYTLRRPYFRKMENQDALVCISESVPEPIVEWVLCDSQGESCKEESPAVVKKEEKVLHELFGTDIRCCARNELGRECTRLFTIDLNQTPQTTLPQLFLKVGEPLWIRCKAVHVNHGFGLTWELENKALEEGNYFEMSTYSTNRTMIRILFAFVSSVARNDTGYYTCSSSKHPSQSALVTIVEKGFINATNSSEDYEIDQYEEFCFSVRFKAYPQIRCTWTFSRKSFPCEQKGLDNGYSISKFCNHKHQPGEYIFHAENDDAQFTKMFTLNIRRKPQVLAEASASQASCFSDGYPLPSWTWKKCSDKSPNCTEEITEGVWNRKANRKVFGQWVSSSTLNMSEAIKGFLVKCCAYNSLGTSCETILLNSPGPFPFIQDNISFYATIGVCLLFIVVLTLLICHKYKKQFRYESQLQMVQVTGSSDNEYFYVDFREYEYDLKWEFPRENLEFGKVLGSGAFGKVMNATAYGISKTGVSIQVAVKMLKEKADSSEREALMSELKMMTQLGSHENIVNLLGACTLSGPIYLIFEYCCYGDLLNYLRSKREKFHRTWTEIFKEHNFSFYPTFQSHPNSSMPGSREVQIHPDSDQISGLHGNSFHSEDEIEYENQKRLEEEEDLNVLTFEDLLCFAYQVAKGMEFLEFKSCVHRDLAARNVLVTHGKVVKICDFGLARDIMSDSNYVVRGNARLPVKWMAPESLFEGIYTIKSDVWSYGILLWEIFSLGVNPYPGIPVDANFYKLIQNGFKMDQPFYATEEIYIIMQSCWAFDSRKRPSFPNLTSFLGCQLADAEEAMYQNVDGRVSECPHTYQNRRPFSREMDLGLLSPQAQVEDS
In short: as §1

Row | Compound | IC50 ([1]; Homo sapiens, MOLM-14, 48 h) [nM] | IC50 ([2]; 48 hours) [nM] | IC50 [3] [nM] | IC50 [4] [nM] | IC50 [5] [nM] | IC50 ([2]; Homo sapiens, MOLM-14, 48 h) [nM] | IC50 ([1]; 48 hours) [nM]
1 | CC(O)(c1cn2c(-c3cc(F)cc(N[C@H]4CNCC[C@@H]4F)n3)cnc2cn1)C(F)(F)F (single isomer, unassigned) [Compound 86] | 365 | 205 | 144 | 65 | 0.9 |  | 
2 | CC(O)(c1cn2c(-c3cc(F)cc(N[C@H]4CNC[C@@H]4F)n3)cnc2cn1)C(F)(F)F (single isomer, unassigned) [Compound 83] | 486 |  | 329 | 28 | < 0.5 | 344 | 
3 | CC(C)(C)c1cn2c(-c3cc(F)cc(N[C@@H]4CCCNC4)n3)cnc2cn1 [Compound 123, (R)-6-(6-(tert-butyl)imidazo[1,2-a]pyrazin-3-yl)-4-fluoro-N-(piperidin-3-yl)pyridin-2-amine] | 244 |  | 296 | 38 | 0.6 | 86 | 
4 | CC(O)(c1cn2c(-c3cc(F)cc(N[C@H]4CNC[C@@H]4F)n3)cnc2cn1)C(F)(F)F (single isomer, unassigned) [Compound 84] |  | 183 | 114 | 2 | 0.6 |  | 410
5 | CC(O)(c1cn2c(-c3nc(N[C@H]4CNCC[C@@H]4F)c(F)cc3F)cnc2cn1)C(F)(F)F (single isomer, unassigned) [Compound 94] |  | 77 | 8 | 0.8 | 1 |  | 864
6 | CC(C)Oc1cn2c(-c3cccc(N[C@@H]4CCCNC4)n3)cnc2cn1 [Compound 131, (R)-6-(6-isopropoxyimidazo[1,2-a]pyrazin-3-yl)-N-(piperidin-3-yl)pyridin-2-amine] | 168 |  | 438 | 10 | < 0.5 | 27 | 
7 | O=S1(=O)CCCCN1c1cn2c(-c3nc(N[C@@H]4CCCNC4)c(F)cc3F)cnc2cn1 [Compound 101, (R)-2-(3-(3,5-difluoro-6-(piperidin-3-ylamino)pyridin-2-yl)imidazo[1,2-a]pyrazin-6-yl)-1,2-thiazinane 1,1-dioxide] | 1540 |  | 175 | 24 | 0.9 | 217 | 
8 | CC(C)(O)c1cn2c(-c3cccc(N[C@H]4CNC[C@@H]4F)n3)cnc2cn1 [Compound 28, 2-(3-(6-(((3S,4S)-4-fluoropyrrolidin-3-yl)amino)pyridin-2-yl)imidazo[1,2-a]pyrazin-6-yl)propan-2-ol] | 502 |  | 220 | 0.7 | < 0.5 | 94 | 
9 | FC(F)(F)C1(c2cn3c(-c4cccc(N[C@H]5CNCC56CC6)n4)cnc3cn2)CC1 [Compound 12, (R)-N-(6-(6-(1-(trifluoromethyl)cyclopropyl)imidazo[1,2-a]pyrazin-3-yl)pyridin-2-yl)-5-azaspiro[2.4]heptan-7-amine] | 72 |  | 165 | 3 | < 0.5 | 7 | 
10 | c1cc(N[C@@H]2CCCNC2)nc(-c2cnc3cnc(C4CC4)cn23)c1 [Compound 48, (R)-6-(6-cyclopropylimidazo[1,2-a]pyrazin-3-yl)-N-(piperidin-3-yl)pyridin-2-amine] | 38 |  | 60 | 3 | 0.6 | 9 | 
11 | FC(F)(F)C1(c2cn3c(-c4cccc(N[C@@H]5CCCNC5)n4)cnc3cn2)CC1 [Compound 9, (R)-N-(piperidin-3-yl)-6-(6-(1-(trifluoromethyl)cyclopropyl)imidazo[1,2-a]pyrazin-3-yl)pyridin-2-amine] | 106 |  | 126 | 7 | < 0.5 | 18 | 
12 | FC(F)COc1cn2c(-c3cccc(N[C@H]4CNCC[C@@H]4F)n3)cnc2cn1 [compound 76, 6-(6-(2,2-difluoroethoxy)imidazo[1,2-a]pyrazin-3-yl)-N-((3S,4S)-4-fluoropiperidin-3-yl)pyridin-2-amine] | 199 |  | 159 | 1 | < 0.5 | 19 | 
13 | O=C1CCCCN1c1cn2c(-c3cccc(N[C@@H]4CCCNC4)n3)cnc2cn1 [Compound 113, (R)-1-(3-(6-(piperidin-3-ylamino)pyridin-2-yl)imidazo[1,2-a]pyrazin-6-yl)piperidin-2-one] | 579 |  | 9940 | 1330 | 0.7 | 172 | 
14 | O=C1CCCCN1c1cn2c(-c3cccc(N[C@H]4CNCC[C@@H]4F)n3)cnc2cn1 [Compound 115, 1-(3-(6-(((3S,4S)-4-fluoropiperidin-3-yl)amino)pyridin-2-yl)imidazo[1,2-a]pyrazin-6-yl)piperidin-2-one] | 273 |  | 9400 | 150 | < 0.5 | 92 | 
15 | CC(O)(c1cn2c(-c3nc(N[C@@H]4CCCNC4)c(F)cc3F)cnc2cn1)C(F)(F)F (single isomer, unassigned) [Compound 90] |  | 96 | 16 | 7 | 2 |  | 817
16 | CC(C)(C)c1cn2c(-c3cc(F)cc(N[C@H]4CNC[C@@H]4F)n3)cnc2cn1 [Compound 122, 6-(6-(tert-butyl)imidazo[1,2-a]pyrazin-3-yl)-4-fluoro-N-((3S,4S)-4-fluoropyrrolidin-3-yl)pyridin-2-amine] | 770 |  | 475 | 31 | < 0.5 | 334 | 
